# In patent US12398178B2, “Collections of peptides, peptide agents, and methods of use thereof” (Parabilis Medicines, Inc., priority 2018, dated 2025):
# Starred links: 1 amine or outer side, 2 acyl side, 3 side chain; linkers in the order of their positions; H or OH if unused. Positions of bridges follow the written chain, without caps; N, C: chain ends. Residues, ends and D or L forms follow the SMILES beside them. No end group written: not given here. X1 = O=C(C[*:1])O[C@@H]1C=C[C@H](OC(=O)C[*:2])C1; X2 = O=C(C[*:1])O[C@@H]1CC[C@H](OC(=O)C[*:2])C1
# Experiments:
# full-length β-Catenin = molecular target: T1, full-length β-Catenin (Homo sapiens, UniProt P35222); assay: Competition fluorescence polarization assay for binding to beta-catenin (displacement of FITC labeled Axin peptide probe); details: 15 nM full-length β-Catenin, 20 nM FITC labeled Axin peptide probe, 3-fold serial dilution from 5 μM; read-out: bCat EC50
# T1 construct: Probe solution (15 nM full-length β-Catenin, 20 nM FITC labeled Axin peptide in buffer)
# T1 sequence (P35222 1-781): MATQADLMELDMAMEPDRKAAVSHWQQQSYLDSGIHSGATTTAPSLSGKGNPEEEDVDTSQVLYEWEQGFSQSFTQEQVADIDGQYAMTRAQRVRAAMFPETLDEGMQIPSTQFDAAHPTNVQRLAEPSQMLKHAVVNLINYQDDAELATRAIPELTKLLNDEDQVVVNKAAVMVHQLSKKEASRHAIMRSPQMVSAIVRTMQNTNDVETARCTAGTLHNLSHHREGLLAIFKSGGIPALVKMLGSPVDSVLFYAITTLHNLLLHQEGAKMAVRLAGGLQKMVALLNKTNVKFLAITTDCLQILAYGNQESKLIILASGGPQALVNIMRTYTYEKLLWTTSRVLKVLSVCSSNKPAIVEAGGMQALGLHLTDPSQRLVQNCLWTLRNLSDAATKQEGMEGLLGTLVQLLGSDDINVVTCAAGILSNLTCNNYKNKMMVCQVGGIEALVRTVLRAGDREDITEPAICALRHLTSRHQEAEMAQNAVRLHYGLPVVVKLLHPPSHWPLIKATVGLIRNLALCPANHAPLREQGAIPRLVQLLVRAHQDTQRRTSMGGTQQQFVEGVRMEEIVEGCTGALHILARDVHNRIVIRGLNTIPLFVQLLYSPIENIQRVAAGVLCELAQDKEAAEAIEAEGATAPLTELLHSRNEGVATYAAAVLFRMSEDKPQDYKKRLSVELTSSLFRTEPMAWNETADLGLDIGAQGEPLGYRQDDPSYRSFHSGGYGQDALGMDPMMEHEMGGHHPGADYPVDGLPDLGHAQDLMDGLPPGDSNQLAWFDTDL
# Method: Peptide assessment: In one assay for assessing binding to beta-catenin, peptide solutions were prepared in buffer (50 mM Tris pH 8.0, 250 mM NaCl, 2% glycerol, 0.5 mM EDTA, 0.02% w/v sodium azide) using a 3-fold serial dilution from 5 μM. Probe solution (15 nM full-length β-Catenin, 20 nM FITC labeled Axin peptide in buffer ([FAM-PEG1-RRWPR(S5)ILD(S5)HVRRVWR (SEQ ID NO: 44)] where the two S5 residues are stapled, as reported in: Proc Natl Acad Sci USA. 2012 Oct. 30; 109(44):17942-7)) was prepared and incubated for 5 minutes, then 40 μL per well plated in a black polystyrene 384-well plate (Corning). Equal volume of the titrated peptide was added to the plate and incubated protected from light for 15 minutes prior to read. Reads were performed on a Spectramax M5 (Molecular Devices) in duplicate.
# [1] = Measurement of LogD (CHI logD by HPLC); type: physicochemical; details: CHI log D, 50 mM ammonium acetate pH 7.4 / acetonitrile gradient, C-18 column, 25° C.
# Method: Measurement of LogD: LogD values were measured on a Agilent 1260 HPLC with UV detector (254, 220 nm), using a Gemini NX C-18 50×3 mm column (Phenomenex) with a 6-minute 0-100% mobile phase gradient of A) 50 mM ammonium acetate pH 7.4 and B) Acetonitrile at 25° C. with a flow rate of 1 mL/min and injection volume of 3-5 uL.
Compound,EC50 (full-length β-Catenin),chromatographic logD [1]
CC(C)C[C@@H]1NC(=O)[C@H](C)NC(=O)[C@H](C)NC(=O)[C@H](Cc2c[nH]c3ccccc23)NC(=O)[C@H](CCC(=O)O)NC(=O)[C@@H](NC(=O)[C@H](CCCNC(=N)N)NC(=O)[C@H](Cc2c[nH]cn2)NC(=O)[C@@H](NC(=O)[C@H](C)NC(=O)[C@@H]2CCCN2C(=O)[C@H](CC(=O)O)NC(=O)[C@H](C)N)[C@@H](C)O)CSCC(=O)O[C@H]2CC[C@H](CC2)OC(=O)CSC[C@@H](C(=O)N[C@@H](CCC(=O)O)C(=O)N[C@@H](CC(C)C)C(=O)N[C@H](C(N)=O)C(C)C)NC(=O)[C@H](Cc2c[nH]cn2)NC1=O [Compound 36],> 10 µM,0.77
CC(C)C[C@@H]1NC(=O)[C@H](C)NC(=O)[C@H](C)NC(=O)[C@H](Cc2c[nH]c3ccccc23)NC(=O)[C@H](CCC(=O)O)NC(=O)[C@@H](NC(=O)[C@H](CCCNC(=N)N)NC(=O)[C@H](Cc2c[nH]cn2)NC(=O)[C@@H](NC(=O)[C@H](C)NC(=O)[C@@H]2CCCN2C(=O)[C@H](CC(=O)O)NC(=O)[C@H](C)N)[C@@H](C)O)CSCC(=O)O[C@@H]2CC[C@@H](C2)OC(=O)CSC[C@@H](C(=O)N[C@@H](CCC(=O)O)C(=O)N[C@@H](CC(C)C)C(=O)N[C@H](C(N)=O)C(C)C)NC(=O)[C@H](Cc2c[nH]cn2)NC1=O [Compound 38],> 10 µM,0.8
GPAKPEAPGEDASPDELHHYYQNLETYLYRVA-NH2 (C-terminus assumed) [Compound 15],> 10 µM,0.82
GPAKPEAPGEDASPDELHTYYDTLYHYLTSVA-NH2 (C-terminus assumed) [Compound 22],> 10 µM,1.09
GPAKPEAPGEDASPDELIFYYDHLSRYLTDVA-NH2 (C-terminus assumed) [Compound 20],> 10 µM,0.91

# Other lines, results leading:
EC50 (full-length β-Catenin),chromatographic logD [1],Compound
> 10 µM,0.75,CC(C)C[C@@H]1NC(=O)[C@H](C)NC(=O)[C@H](C)NC(=O)[C@H](Cc2c[nH]c3ccccc23)NC(=O)[C@H](CCC(=O)O)NC(=O)[C@@H](NC(=O)[C@H](CCCNC(=N)N)NC(=O)[C@H](Cc2c[nH]cn2)NC(=O)[C@@H](NC(=O)[C@H](C)NC(=O)[C@@H]2CCCN2C(=O)[C@H](CC(=O)O)NC(=O)[C@H](C)N)[C@@H](C)O)CSCC(=O)O[C@@H]2C=C[C@@H](C2)OC(=O)CSC[C@@H](C(=O)N[C@@H](CCC(=O)O)C(=O)N[C@@H](CC(C)C)C(=O)N[C@H](C(N)=O)C(C)C)NC(=O)[C@H](Cc2c[nH]cn2)NC1=O [Compound 39]
> 10 µM,0.91,CC[C@H](C)[C@@H]1NC(=O)[C@H](CC(C)C)NC(=O)[C@H](C)NC(=O)[C@H](C)NC(=O)[C@H](Cc2c[nH]cn2)NC(=O)[C@H](CCC(=O)O)NC(=O)[C@@H](NC(=O)[C@H](C)NC(=O)[C@H](Cc2c[nH]c3ccccc23)NC(=O)[C@H](CC(C)C)NC(=O)[C@H](C)NC(=O)[C@@H]2CCCN2C(=O)[C@H](CC(=O)O)NC(=O)[C@H](C)N)CSCC(=O)O[C@@H]2CC[C@@H](C2)OC(=O)CSC[C@@H](C(=O)N[C@@H](CCC(=O)O)C(=O)N[C@H](C(=O)N[C@@H](CCC(N)=O)C(N)=O)[C@@H](C)O)NC1=O [Compound 47] (H-ADPALWACEHAALICETQ-NH2; linker 8-15 via X2; N-terminus and C-terminus assumed)
> 10 µM,0.93,CC[C@H](C)[C@@H]1NC(=O)[C@H](CC(C)C)NC(=O)[C@H](C)NC(=O)[C@H](C)NC(=O)[C@H](Cc2c[nH]cn2)NC(=O)[C@H](CCC(=O)O)NC(=O)[C@@H](NC(=O)[C@H](C)NC(=O)[C@H](Cc2c[nH]c3ccccc23)NC(=O)[C@H](CC(C)C)NC(=O)[C@H](C)NC(=O)[C@@H]2CCCN2C(=O)[C@H](CC(=O)O)NC(=O)[C@H](C)N)CSCC(=O)O[C@@H]2C=C[C@@H](C2)OC(=O)CSC[C@@H](C(=O)N[C@@H](CCC(=O)O)C(=O)N[C@H](C(=O)N[C@@H](CCC(N)=O)C(N)=O)[C@@H](C)O)NC1=O [Compound 48] (H-ADPALWACEHAALICETQ-NH2; linker 8-15 via X1; N-terminus and C-terminus assumed)
